The values that follow are results of earlier work, collected in patent US20110200560A1, “NON-IONIC SELF-ASSEMBLING PEPTIDES AND USES THEREOF” (MASSACHUSETTS INSTITUTE OF TECHNOLOGY, priority 2009, published 2011).

In data set [1] the test system is cell adhesion.
Data set [2] concerns HUVEC.
Data set [3] concerns neuronal cell.
Data set [4] has as its system human umbilical vein endothelial cells (HIVEC).
Data set [5] relates to human umbilical vein endothelial cell (HUVEC). The note with it: from RADA 16-I scaffold, without additional soluble growth factors.
For data set [6], the system named is PC12 cells.

Read-outs that look alike come from different tables or passages of the source.

Take PDSGR (Mammalian): the cell adhesion entry in data set [1] is recorded as “promoted cell adhesion”. As to KAFDITYVRLKF (Mammalian), in data set [2], the HUVEC adhesion entry was “promoted” and the HUVEC tube formation result is reported as “promoted”. In data set [3], the neurite outgrowth result is “promoted” and the neuronal cell adhesion result is on record as “promoted”.

As to “CSRARKQAASIKVAVSADR (Mammalian) [Laminin-1 peptide]”, in data set [4], the “degradation of Matrigel matrix by human umbilical vein endothelial cells” value is “induced degradation of Matrigel matrix”. With “RAD/KLT: RADA16 peptide scaffold containing motif from vascular endothelial growth factor (KLTWQELYQLKYKGI) (SEQ ID NO: 78) (Mammalian)”, the “HUVEC unidirectional migration in response to functional peptide scaffolds” value in data set [5] is recorded as “directionally migrated”; in data set [5] (listed as KLT), “induced cell migration”. Regarding AASIKVAVSADR (Mammalian), the “activity of neurite extension by PC12 cells” value in data set [6] is given as “promoted activity of neurite extension”. As for YIGSR (Mammalian), the cell adhesion entry in data set [1] was “promoted cell adhesion”. Consider “RAD/PRG: RADA16 peptide scaffold containing active motif with 2 units RGD motif (PRGDSGYRGDS) (SEQ ID NO: 77) (Mammalian)”, for which the “HUVEC unidirectional migration in response to functional peptide scaffolds” value in data set [5] is on record as “directionally migrated”; in data set [5] (listed as PRG), “induced cell migration”. Take RYVVLPR (Mammalian): in data set [1], the cell adhesion entry is on record as “promoted cell adhesion”.
